Paper PMC4865820, “Branched Peptide, B2088, Disrupts the Supramolecular Organization of Lipopolysaccharides and Sensitizes the Gram-negative Bacteria” (Scientific Reports, 2016)
Positions of bridges follow the written chain, without caps; N, C: chain ends. Non-standard residues stand in square brackets, D forms with d. Residues, ends and D or L forms follow the SMILES beside them. Chains are numbered I, II in the order given. Nle = CCCC[C@H](N)C(=O)O; Nva = CCC[C@H](N)C(=O)O

Tests used:
[1] = tested on: P. aeruginosa DR4877/07; assay type: cell-based; settings: for Fractional inhibitory concentration of peptide/PMB, combination with Chloarm / Fractional inhibitory concentration of peptide/PMB, combination with Erythro / Fractional inhibitory concentration of peptide/PMB, combination with Levo / Fractional inhibitory concentration of peptide/PMB, combination with Tobra: first number in parenthesis; for Fractional inhibitory concentration of antibiotic, Chloarm combination / Fractional inhibitory concentration of antibiotic, Erythro combination / Fractional inhibitory concentration of antibiotic, Levo combination / Fractional inhibitory concentration of antibiotic, Tobra combination: second number in parenthesis
Summary of the method: (§1)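 Checkerboard combinations of peptide and antibiotic, each 2-fold diluted up to 1× MIC in MHB, were tested against ~10^6 CFU/ml final inoculum. Plates were incubated 24 h at 37 °C, with growth read at OD600. FICI was the sum of the combination-to-alone MIC ratios for each agent, and the lowest FICI from duplicate experiments was reported.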

[2] = tested on: P. aeruginosa ATCC 27853; assay type: cell-based; settings: ATCC 27853; for Fractional inhibitory concentration of peptide/PMB, combination with Genta: first number in parenthesis; for Fractional inhibitory concentration of antibiotic, Genta combination: second number in parenthesis
Summary of the method: as §1

[3] = tested on: K. pneumonia 4299; experiment: microbe, parasite or virus in culture; assay type: cell-based, K. pneumoniae; settings: 24 h
Procedure: (§2) MIC of each peptide was determined using the microdilution method in a 96 well microtitre plates (SPL Life Sciences Co., Ltd, Korea). Two-fold serial dilutions of each peptide in Mueller-Hinton Broth (MHB) was prepared from a 1 mg/ml stock solution of the peptide in the same broth, to obtain a final concentration in the range of 0.0976–50 μg/ml in each well. Bacterial suspensions (P. aeruginosa ATCC 27853, P. aeruginosa 4877, P. aeruginosa 23155, K. pneumoniae ATCC 10031 and K. pneumoniae 4299) were prepared by suspending the overnight cultured bacteria in saline and adjusting the inoculum to ~10^8 colony forming units (CFU) per ml. A further 150-fold dilution was then prepared in MHB to achieve a final cell density of 10^5–10^6 CFU/ml. In each well, 100 μl of inoculum was mixed with the equal volume of peptides at their 2× concentration. Positive and negative controls contained 200 μl of inoculum (without any peptide) and broth alone (no peptide/inoculum) respectively. Another negative control in which MHB containing 200 μl of peptide alone in its highest concentration tested (50 μg/ml) was also included to ensure that the optical density measured in the test wells was not due to turbidity of the peptides in solution. The 96 well polystyrene plates were then incubated at 37 °C for 24 h and the optical density at 600 nm (OD600) was measured every 30 min continuously using a TECAN microplate reader (TECAN Infinite 200, Austria). All the experiments were performed in two independent duplicates and the MIC was determined as the lowest peptide concentration in which no visible growth was observed.

[4] = tested on: P. aeruginosa ATCC 27853; experiment: microbe, parasite or virus in culture; assay type: cell-based; settings: ATCC 27853, 24 h
Procedure: as §2

[5] = tested on: K. pneumoniae ATCC10031; assay type: cell-based; settings: ATCC10031, 24 h
Procedure: as §2

[6] = tested on: P. aeruginosa 23155; assay type: cell-based; settings: 23155, 24 h
Procedure: as §2

[7] = tested on: LPS (E. coli serotype 055:B5); experiment: BODIPY TR cadaverine (BC) displacement assay with LPS; assay type: binding; settings: no unit in table; ED50 values in μM; 5 mM HEPES pH 7.4; duplicates; read-out: BC50 (LPS binding)
Summary of the method: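 Peptides (0.02–25.6 μM, two-fold dilutions) mixed 1:1 with BODIPY TR cadaverine:LPS (E. coli 055:B5) mixture in 5 mM HEPES pH 7.4; fluorescence at 580/620 nm. Displacement normalized to polymyxin B (Fmax) and probe:LPS alone (F0); ED50 from curve fit, duplicates.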

[8] = tested on: P. aeruginosa ATCC 9027; experiment: Outer membrane permeability assay (NPN); assay type: cell-based; settings: no unit in table; Fig. S5 axis [Peptide], μM; 10 μM NPN, 5 mM HEPES pH 7.4, ex 355/em 405 nm; average of two titrations; read-out: PC50 (peptide concentration for half-maximal NPN intensity, OM permeability)
Procedure: The ability of each peptide to permeabilize the OM of Gram-negative organisms was determined using the hydrophobic fluorescent probe 1-N-phenylnaphthylamine (NPN) as previously reported. P. aeruginosa ATCC 9027 cells from an overnight MHB culture were harvested after centrifuging at 3000 rpm for 10 minutes. The pellet was washed twice, suspended in 5 mM HEPES (N- 2-hydroxyethylpiperazine-N’-2 ethanesulfonic acid) buffer (pH 7.4) and adjusted to an OD600 of 0.200. A suspension containing 600 μl of bacteria cells and 1 μl of a concentrated stock solution of NPN was mixed into a 10 mm stirred quartz cuvette so that the final concentration of the probe remained 10 μM. Aliquots containing 1 μl of each peptide in various concentrations (100, 50, 25, 15, 10, 5, 2.5 and 1 μg/ml) were added upon NPN dye stabilization. The fluorescence intensity was monitored using a Quanta Master spectrophotometer with a constant slit width of 0.5 nm, excitation and emission wavelengths set at 355 nm and 405 nm respectively. The peptide concentration required for half-maximal intensity (PC50) was determined by sigmoidal curve fitting using Graphpad Prism software. The experimental data is average of two independent titration experiments.

Row | SMILES | Fractional inhibitory concentration of peptide/PMB, combination with Chloarm [1] | Fractional inhibitory concentration of peptide/PMB, combination with Erythro [1] | Fractional inhibitory concentration of peptide/PMB, combination with Levo [1] | Fractional inhibitory concentration of peptide/PMB, combination with Tobra [1] | Fractional inhibitory concentration of antibiotic, Chloarm combination [1] | Fractional inhibitory concentration of antibiotic, Erythro combination [1] | Fractional inhibitory concentration of antibiotic, Levo combination [1] | Fractional inhibitory concentration of antibiotic, Tobra combination [1] | Fractional inhibitory concentration of peptide/PMB, combination with Genta [2] | Fractional inhibitory concentration of antibiotic, Genta combination [2] | Minimum Inhibitory Concentration against K. pneumonia 4299 [3] | Minimum Inhibitory Concentration against P. aeruginosa ATCC 27853 [4] | Minimum Inhibitory Concentration against K. pneumoniae ATCC10031 [5] | Minimum Inhibitory Concentration against P. aeruginosa 23155 [6] | EC50 [7] | EC50 [8]
1 | CCCC[C@H](NC(=O)[C@H](CCCCN)NC(=O)[C@H](CCCNC(=N)N)NC(=O)CNC(=O)[C@@H](N)CCCNC(=N)N)C(=O)N[C@@H](CCCC)C(=O)N[C@@H](CCCNC(=N)N)C(=O)N[C@@H](CCCNC(=N)N)C(=O)NCCCC[C@H](NC(=O)[C@H](CCCNC(=N)N)NC(=O)[C@H](CCCNC(=N)N)NC(=O)[C@H](CCCC)NC(=O)[C@H](CCCC)NC(=O)[C@H](CCCCN)NC(=O)[C@H](CCCNC(=N)N)NC(=O)CNC(=O)[C@@H](N)CCCNC(=N)N)C(=O)N[C@@H](CCCCN)C(=O)O [(RGRKNleuNleuRR)2KK] (I: H-RGRK[Nle][Nle]RRKK-OH / II: H-RGRK[Nle][Nle]RR; amide I:9-II:C; N-terminus and C-terminus assumed) | 0.5 | 0.5 | 0.5 | 0.06 | 0.06 | 0.03 | 0.25 | 0.5 | 0.5 | 0.01 | 5.3 µM | 2.7 µM | 2.7 µM | 2.7 µM | 1.62 ± 0.02 µM | 16.4 ± 0.1 µM
2 | CCC[C@H](NC(=O)[C@H](CCCCN)NC(=O)[C@H](CCCNC(=N)N)NC(=O)CNC(=O)[C@@H](N)CCCNC(=N)N)C(=O)N[C@@H](CCC)C(=O)N[C@@H](CCCNC(=N)N)C(=O)N[C@@H](CCCNC(=N)N)C(=O)NCCCC[C@H](NC(=O)[C@H](CCCNC(=N)N)NC(=O)[C@H](CCCNC(=N)N)NC(=O)[C@H](CCC)NC(=O)[C@H](CCC)NC(=O)[C@H](CCCCN)NC(=O)[C@H](CCCNC(=N)N)NC(=O)CNC(=O)[C@@H](N)CCCNC(=N)N)C(=O)N[C@@H](CCCCN)C(=O)O [(RGRKNvalNvalRR)2KK] (I: H-RGRK[Nva][Nva]RRKK-OH / II: H-RGRK[Nva][Nva]RR; amide I:9-II:C; N-terminus and C-terminus assumed) | (0.25,0.25) | (0.5,0.5) | 0.5 | 0.25 | (0.25,0.25) | (0.5,0.5) | 0.25 | 0.13 | – | 0.13 | 21.8 µM | 10.9 µM | 10.9 µM | 5.5 µM | 1.45 ± 0.01 µM | 14.9 ± 1.2 µM
3 | N=C(N)NCCC[C@H](NC(=O)CNC(=O)[C@@H](N)CCCNC(=N)N)C(=O)N[C@@H](CCCCN)C(=O)N[C@@H](Cc1c[nH]c2ccccc12)C(=O)N[C@@H](Cc1c[nH]c2ccccc12)C(=O)N[C@@H](CCCNC(=N)N)C(=O)N[C@@H](CCCNC(=N)N)C(=O)NCCCC[C@H](NC(=O)[C@H](CCCNC(=N)N)NC(=O)[C@H](CCCNC(=N)N)NC(=O)[C@H](Cc1c[nH]c2ccccc12)NC(=O)[C@H](Cc1c[nH]c2ccccc12)NC(=O)[C@H](CCCCN)NC(=O)[C@H](CCCNC(=N)N)NC(=O)CNC(=O)[C@@H](N)CCCNC(=N)N)C(=O)N[C@@H](CCCCN)C(=O)O (I: H-RGRKWWRRKK-OH / II: H-RGRKWWRR; amide I:9-II:C; N-terminus and C-terminus assumed) | 0.5 | (0.5,0.5) | 0.5 | 0.5 | 0.13 | (0.5,0.5) | 0.25 | 0.25 | 0.5 | 0.06 | 19 µM | 9.5 µM | 9.5 µM | 9.5 µM | 6.8 ± 0.12 µM | 31.1 ± 4.6 µM
